Test results: the NIST ThermoML archive (doi:10.1021/acs.jced.7b00106)
“And” between values parts separate entries of the source, which are not always exact repeats. Identical values can stand only once.

Conditions: Hot wire method

FC(F)(F)/C=C/Cl [(E)-1-chloro-3,3,3-trifluoroprop-1-ene]
Conditions	thermal conductivity
423.65 K, 7612 kPa, Liquid	0.05622 W/m/K
423.65 K, 7619 kPa, Liquid	0.05627 W/m/K
423.65 K, 22720 kPa, Liquid	0.06706 W/m/K
423.66 K, 22716 kPa, Liquid	0.06723 W/m/K
423.67 K, 28114 kPa, Liquid	0.07024 W/m/K
423.69 K, 28097 kPa, Liquid	0.07022 W/m/K
423.72 K, 13391 kPa, Liquid	0.0611 W/m/K
423.72 K, 13398 kPa, Liquid	0.06111 W/m/K
423.77 K, 20045 kPa, Liquid	0.06561 W/m/K
423.77 K, 20052 kPa, Liquid	0.06562 W/m/K
423.78 K, 11664 kPa, Liquid	0.05978 W/m/K
423.79 K, 11674 kPa, Liquid	0.05981 W/m/K
423.83 K, 25690 kPa, Liquid	0.06889 W/m/K
423.84 K, 25696 kPa, Liquid	0.06888 W/m/K
423.85 K, 10139 kPa, Liquid	0.05851 W/m/K
423.86 K, 10145 kPa, Liquid	0.05848 W/m/K
423.86 K, 17471 kPa, Liquid	0.06395 W/m/K
423.87 K, 17475 kPa, Liquid	0.06396 W/m/K
423.93 K, 15376 kPa, Liquid	0.06253 W/m/K
423.93 K, 15379 kPa, Liquid	0.06254 W/m/K
423.94 K, 22691 kPa, Liquid	0.06716 W/m/K
423.95 K, 22710 kPa, Liquid	0.06724 W/m/K
424.02 K, 13386 kPa, Liquid	0.06109 W/m/K
424.02 K, 13393 kPa, Liquid	0.06113 W/m/K
451.03 K, 4240 kPa, Fluid (supercritical or subcritical phases)	0.04303 W/m/K
451.04 K, 4194 kPa, Fluid (supercritical or subcritical phases)	0.04141 W/m/K
451.04 K, 4285 kPa, Fluid (supercritical or subcritical phases)	0.0443 W/m/K
451.05 K, 4194 kPa, Fluid (supercritical or subcritical phases)	0.04138 W/m/K
451.05 K, 4285 kPa, Fluid (supercritical or subcritical phases)	0.04428 W/m/K
451.1 K, 4194 kPa, Fluid (supercritical or subcritical phases)	0.0413 W/m/K
451.11 K, 4329 kPa, Fluid (supercritical or subcritical phases)	0.04555 W/m/K
451.12 K, 4329 kPa, Fluid (supercritical or subcritical phases)	0.04569 W/m/K
451.13 K, 4146 kPa, Fluid (supercritical or subcritical phases)	0.03927 W/m/K
451.14 K, 4146 kPa, Fluid (supercritical or subcritical phases)	0.03925 W/m/K
451.15 K, 4091 kPa, Fluid (supercritical or subcritical phases)	0.03775 W/m/K
451.19 K, 4240 kPa, Fluid (supercritical or subcritical phases)	0.0441 W/m/K
451.2 K, 4146 kPa, Fluid (supercritical or subcritical phases)	0.03962 W/m/K
451.2 K, 4240 kPa, Fluid (supercritical or subcritical phases)	0.04407 W/m/K
451.21 K, 4024 kPa, Fluid (supercritical or subcritical phases)	0.03539 W/m/K
451.21 K, 4146 kPa, Fluid (supercritical or subcritical phases)	0.03961 W/m/K
451.21 K, 4329 kPa, Fluid (supercritical or subcritical phases)	0.0465 W/m/K
451.22 K, 4091 kPa, Fluid (supercritical or subcritical phases)	0.03768 W/m/K
451.22 K, 4285 kPa, Fluid (supercritical or subcritical phases)	0.04586 W/m/K
451.22 K, 4329 kPa, Fluid (supercritical or subcritical phases)	0.04642 W/m/K
451.24 K, 4335 kPa, Fluid (supercritical or subcritical phases)	0.04596 W/m/K
451.24 K, 4404 kPa, Fluid (supercritical or subcritical phases)	0.04602 W/m/K
451.25 K, 4146 kPa, Fluid (supercritical or subcritical phases)	0.03998 W/m/K
451.25 K, 4335 kPa, Fluid (supercritical or subcritical phases)	0.04625 W/m/K
451.25 K, 4404 kPa, Fluid (supercritical or subcritical phases)	0.04634 W/m/K
451.26 K, 3939 kPa, Fluid (supercritical or subcritical phases)	0.03353 W/m/K
451.27 K, 4025 kPa, Fluid (supercritical or subcritical phases)	0.03578 W/m/K
451.28 K, 4024 kPa, Fluid (supercritical or subcritical phases)	0.03519 W/m/K
451.28 K, 4091 kPa, Fluid (supercritical or subcritical phases)	0.03788 W/m/K
451.29 K, 4090 kPa, Fluid (supercritical or subcritical phases)	0.0379 W/m/K
451.3 K, 4146 kPa, Fluid (supercritical or subcritical phases)	0.04026 W/m/K
451.31 K, 4146 kPa, Fluid (supercritical or subcritical phases)	0.04022 W/m/K
451.32 K, 3831 kPa, Fluid (supercritical or subcritical phases)	0.03175 W/m/K
451.35 K, 3691 kPa, Fluid (supercritical or subcritical phases)	0.02988 W/m/K
451.35 K, 4024 kPa, Fluid (supercritical or subcritical phases)	0.03573 W/m/K
451.35 K, 4025 kPa, Fluid (supercritical or subcritical phases)	0.03528 W/m/K
451.35 K, 4091 kPa, Fluid (supercritical or subcritical phases)	0.0383 W/m/K
451.36 K, 3691 kPa, Fluid (supercritical or subcritical phases)	0.02992 W/m/K
451.36 K, 4091 kPa, Fluid (supercritical or subcritical phases)	0.03832 W/m/K
451.37 K, 4404 kPa, Fluid (supercritical or subcritical phases)	0.04741 W/m/K
451.38 K, 3649 kPa, Fluid (supercritical or subcritical phases)	0.02977 W/m/K
451.39 K, 3831 kPa, Fluid (supercritical or subcritical phases)	0.03167 W/m/K
451.4 K, 3831 kPa, Fluid (supercritical or subcritical phases)	0.03184 W/m/K
451.41 K, 3939 kPa, Fluid (supercritical or subcritical phases)	0.03376 W/m/K
451.42 K, 3508 kPa, Fluid (supercritical or subcritical phases)	0.02833 W/m/K
451.43 K, 3509 kPa, Fluid (supercritical or subcritical phases)	0.02845 W/m/K
451.44 K, 3691 kPa, Fluid (supercritical or subcritical phases)	0.02982 W/m/K
451.44 K, 4090 kPa, Fluid (supercritical or subcritical phases)	0.03859 W/m/K
451.44 K, 4091 kPa, Fluid (supercritical or subcritical phases)	0.03884 W/m/K
451.45 K, 3691 kPa, Fluid (supercritical or subcritical phases)	0.03 W/m/K
451.45 K, 4479 kPa, Fluid (supercritical or subcritical phases)	0.04701 W/m/K and 0.04717 W/m/K
451.46 K, 3650 kPa, Fluid (supercritical or subcritical phases)	0.02974 W/m/K
451.47 K, 3830 kPa, Fluid (supercritical or subcritical phases)	0.03201 W/m/K
451.47 K, 4579 kPa, Fluid (supercritical or subcritical phases)	0.04622 W/m/K
451.47 K, 4580 kPa, Fluid (supercritical or subcritical phases)	0.04624 W/m/K
451.48 K, 3651 kPa, Fluid (supercritical or subcritical phases)	0.02988 W/m/K
451.48 K, 3831 kPa, Fluid (supercritical or subcritical phases)	0.03192 W/m/K
451.5 K, 3272 kPa, Fluid (supercritical or subcritical phases)	0.02692 W/m/K
451.5 K, 3273 kPa, Fluid (supercritical or subcritical phases)	0.02709 W/m/K
451.5 K, 4908 kPa, Fluid (supercritical or subcritical phases)	0.04557 W/m/K and 0.04553 W/m/K
451.51 K, 3508 kPa, Fluid (supercritical or subcritical phases)	0.02853 W/m/K
451.51 K, 4024 kPa, Fluid (supercritical or subcritical phases)	0.03641 W/m/K
451.51 K, 4025 kPa, Fluid (supercritical or subcritical phases)	0.03631 W/m/K
451.52 K, 4479 kPa, Fluid (supercritical or subcritical phases)	0.04791 W/m/K
451.52 K, 5208 kPa, Fluid (supercritical or subcritical phases)	0.04584 W/m/K and 0.04601 W/m/K
451.53 K, 4479 kPa, Fluid (supercritical or subcritical phases)	0.04799 W/m/K
451.54 K, 3691 kPa, Fluid (supercritical or subcritical phases)	0.03 W/m/K and 0.03016 W/m/K
451.54 K, 4580 kPa, Fluid (supercritical or subcritical phases)	0.04656 W/m/K
451.55 K, 4580 kPa, Fluid (supercritical or subcritical phases)	0.04665 W/m/K
451.56 K, 3650 kPa, Fluid (supercritical or subcritical phases)	0.02992 W/m/K
451.57 K, 3650 kPa, Fluid (supercritical or subcritical phases)	0.02995 W/m/K
451.57 K, 3831 kPa, Fluid (supercritical or subcritical phases)	0.0321 W/m/K
451.58 K, 3831 kPa, Fluid (supercritical or subcritical phases)	0.0323 W/m/K
451.59 K, 4908 kPa, Fluid (supercritical or subcritical phases)	0.04582 W/m/K and 0.04575 W/m/K
451.6 K, 5208 kPa, Fluid (supercritical or subcritical phases)	0.04598 W/m/K and 0.04588 W/m/K
451.61 K, 3273 kPa, Fluid (supercritical or subcritical phases)	0.02708 W/m/K
451.61 K, 4734 kPa, Fluid (supercritical or subcritical phases)	0.046 W/m/K
451.62 K, 3273 kPa, Fluid (supercritical or subcritical phases)	0.027 W/m/K
451.62 K, 3508 kPa, Fluid (supercritical or subcritical phases)	0.02859 W/m/K
451.62 K, 3509 kPa, Fluid (supercritical or subcritical phases)	0.02863 W/m/K
451.62 K, 4579 kPa, Fluid (supercritical or subcritical phases)	0.04727 W/m/K
451.62 K, 4580 kPa, Fluid (supercritical or subcritical phases)	0.0472 W/m/K
451.62 K, 4734 kPa, Fluid (supercritical or subcritical phases)	0.0461 W/m/K
451.64 K, 3691 kPa, Fluid (supercritical or subcritical phases)	0.03032 W/m/K and 0.03035 W/m/K
451.66 K, 2992 kPa, Fluid (supercritical or subcritical phases)	0.02577 W/m/K
451.67 K, 2990 kPa, Fluid (supercritical or subcritical phases)	0.02601 W/m/K
451.67 K, 3650 kPa, Fluid (supercritical or subcritical phases)	0.02999 W/m/K
451.67 K, 4909 kPa, Fluid (supercritical or subcritical phases)	0.04592 W/m/K
451.68 K, 4909 kPa, Fluid (supercritical or subcritical phases)	0.04602 W/m/K
451.68 K, 5207 kPa, Fluid (supercritical or subcritical phases)	0.04609 W/m/K
451.69 K, 5207 kPa, Fluid (supercritical or subcritical phases)	0.04582 W/m/K
451.7 K, 4580 kPa, Fluid (supercritical or subcritical phases)	0.04772 W/m/K
451.7 K, 4734 kPa, Fluid (supercritical or subcritical phases)	0.04631 W/m/K
451.71 K, 4580 kPa, Fluid (supercritical or subcritical phases)	0.04774 W/m/K
451.71 K, 4734 kPa, Fluid (supercritical or subcritical phases)	0.04636 W/m/K
451.72 K, 3272 kPa, Fluid (supercritical or subcritical phases)	0.02716 W/m/K
451.73 K, 2617 kPa, Fluid (supercritical or subcritical phases)	0.02492 W/m/K and 0.02475 W/m/K
451.73 K, 3273 kPa, Fluid (supercritical or subcritical phases)	0.02707 W/m/K
451.74 K, 3509 kPa, Fluid (supercritical or subcritical phases)	0.02878 W/m/K and 0.02877 W/m/K
451.76 K, 4908 kPa, Fluid (supercritical or subcritical phases)	0.04609 W/m/K
451.76 K, 4909 kPa, Fluid (supercritical or subcritical phases)	0.04628 W/m/K
451.77 K, 3650 kPa, Fluid (supercritical or subcritical phases)	0.0303 W/m/K
451.77 K, 5207 kPa, Fluid (supercritical or subcritical phases)	0.0462 W/m/K
451.77 K, 5208 kPa, Fluid (supercritical or subcritical phases)	0.04621 W/m/K
451.78 K, 2992 kPa, Fluid (supercritical or subcritical phases)	0.02586 W/m/K
451.78 K, 3650 kPa, Fluid (supercritical or subcritical phases)	0.03036 W/m/K
451.79 K, 2166 kPa, Fluid (supercritical or subcritical phases)	0.02402 W/m/K
451.79 K, 2992 kPa, Fluid (supercritical or subcritical phases)	0.02587 W/m/K
451.8 K, 2167 kPa, Fluid (supercritical or subcritical phases)	0.02395 W/m/K
451.8 K, 4735 kPa, Fluid (supercritical or subcritical phases)	0.0468 W/m/K
451.85 K, 3273 kPa, Fluid (supercritical or subcritical phases)	0.02717 W/m/K and 0.02719 W/m/K
451.85 K, 3509 kPa, Fluid (supercritical or subcritical phases)	0.02883 W/m/K
451.86 K, 1669 kPa, Fluid (supercritical or subcritical phases)	0.0235 W/m/K
451.86 K, 1672 kPa, Fluid (supercritical or subcritical phases)	0.02345 W/m/K
451.87 K, 2617 kPa, Fluid (supercritical or subcritical phases)	0.02483 W/m/K
451.87 K, 2618 kPa, Fluid (supercritical or subcritical phases)	0.02473 W/m/K
451.89 K, 4734 kPa, Fluid (supercritical or subcritical phases)	0.0473 W/m/K
451.89 K, 4735 kPa, Fluid (supercritical or subcritical phases)	0.04729 W/m/K
451.91 K, 2992 kPa, Fluid (supercritical or subcritical phases)	0.02598 W/m/K
451.92 K, 2991 kPa, Fluid (supercritical or subcritical phases)	0.02605 W/m/K
451.93 K, 5207 kPa, Fluid (supercritical or subcritical phases)	0.04646 W/m/K
